Measured values from patent US8586612B2, “Piperidinesulfonylureas and -thioureas, their preparation, their use and pharmaceutical compositions comprising them” (Sanofi-Aventis Deutschland GmbH, priority 2004, dated 2013).

What was measured:
[1] = system: guinea pig papillary muscle; assay: Effect on the action potential duration (APD90) on the guinea pig papillary muscle under hypoxia; details: test substance 2 μmol/l in bath, 60 minutes after addition; 100% = APD90 under hypoxia before substance, 0% = normoxic APD90
Text: 1) Effect on the Action Potential Duration on the Guinea Pig Papillary Muscle
ATP deficiency states like those observed in the cardiomyocyte during an ischemia lead to a shortening of the action potential duration. They are regarded as one of the causes of so-called reentry arrhythmias, which can cause sudden cardiac death. The opening of ATP-sensitive potassium channels through the lowering of the ATP level is regarded as the cause thereof (ATP=adenosine triphosphate). For measuring the action potential on the guinea pig papillary muscle, a standard microelectrode technique was employed.
Guinea pigs of both sexes were sacrificed by a blow to the head, the heart was removed, and the papillary muscles were dissected out and suspended in an organ bath. The organ bath was rinsed with Ringer's solution (136 mmol/l NaCl, 3.3 mmol/l KCl, 2.5 mmol/l CaCl2, 1.2 mmol/l KH2PO4, 1.1 mmol/l MgSO4, 5.0 mmol/l glucose, 10.0 mmol/l 1-(2-hydroxyethyl)piperazine-4-(2-ethanesulfonic acid) (HEPES), pH adjusted to 7.4 with NaOH) and aerated with 100% oxygen at a temperature of 37° C. The muscle was stimulated via an electrode with square-wave pulses of 1 V and 1 ms duration and a frequency of 1 Hz. The action potential was derived through a glass microelectrode which is inserted intracellularly and filled with 3 mol/l KCl solution, and was recorded. The action potential was amplified using an amplifier from Hugo Sachs (March-Hugstetten, Germany) and stored and evaluated by a computer. The duration of the action potential was determined at a degree of repolarization of 90% (APD90). The shortening of the action potential was induced after an equilibration time of 30 minutes by rinsing the papillary muscle with a hypoxic solution. For this, the glucose was removed, the HEPES buffer replaced by PIPES buffer (piperazine-1,4-bis(2-ethanesulfonic acid)), the pH adjusted to 6.5 and aeration was carried out with 100% nitrogen. This led after a period of 60 minutes to a marked shortening of the APD90. After this time, the test substance was added in the form of a stock solution in propanediol, so that the concentration of the substance in the bath solution was 2 μmol/l. After a further 60 minutes, the re-prolongation of the action potential again recorded. The table below indicates the overall shortening, resulting after hypoxia and addition of test substance, of the APD90 value in percent, i.e. the percentage shortening of the APD90 still remaining after addition of the test substance under hypoxia, where 100% corresponds to the APD90 value under hypoxic conditions before addition of the test substance and 0% corresponds to the APD90 value under normoxic conditions at the start of the experiment.

hSUR1/hKir6.2 = hSUR1/hKir6.2 (Homo sapiens, UniProt Q09428); assay: Effect on membrane potential of hSUR1/hKir6.2-transfected CHO cells (hypoglycemic effect), DiBAC4 fluorescence, FLIPR; type: cell-based; details: CHO cells activated with diaxozide, averages of at least 4 experiments
Text: 2) Effect on hSUR1/hKir6.2-Transfected CHO Cells (Hypoglycemic Effect)
The target organ of these compounds is the β cell of the pancreas, where they block ATP-sensitive potassium channels and bring about, through influencing the electric potential of the cell membrane, a release of the blood sugar-lowering hormone insulin. […] The extent of this depolarization of the cell membrane caused by the compounds according to the invention was investigated on CHO cells which were transfected with the cloned components of human pancreatic ATP-sensitive potassium channels, hSUR1 and hKir6.2, and were activated by pretreatment with diaxozide, an opener of ATP-sensitive potassium channels. The strength of action of a compound on the membrane potential of these transfected and activated CHO cells is a measure of the blood sugar-lowering potential of this compound.
On the day of the measurement, the microtiter plates were washed three times with PBS (physiological buffer solution). 90 μl remained in each well at the last washing step. The cells were then loaded with the fluorescent dye DiBAC4 (Molecular Probes, Portland, Oreg., USA) by adding 90 μl of a 10 micromolar solution of DIBAC4 in PBS and 90 μl of a 400-micromolar solution of diaxozide in PBS to each well. After an incubation time of 30 minutes at 37° C., the microtiter plates were then transferred into a Fluorescent Microtiter Plate Reader (FLIPR; Molecular Devices, Sunnyvale, Calif., USA). The cells were excited using an argon laser (Innova 90; Coherent, Santa Clara, Calif., USA) at a wavelength of 488 nm, and the fluorescence emission was measured using a CCD camera. Measurement of the membrane potential began after 4 minutes by adding 20 μl of a solution of the test substance or of the control solution to each well, measuring the resulting fluorescence emission every 20 seconds over a period of 20 minutes. The data listed below are averages of at least 4 experiments.

guinea pig heart = assay: Effect on coronary flow under hypoxic conditions in the isolated perfused Langendorff guinea pig heart; details: 1 μM in perfusate, added 10 minutes before hypoxia; averages of 3 hearts
Text: 3) Effect on Coronary Flow Under Hypoxic Conditions in the Guinea Pig Heart
It is known that an oxygen deficiency in coronary vessels leads to a reflectory dilatation of the vessels in order to compensate the oxygen deficiency. The vascular KATP channel (SUR2B/Kir6.2) plays an important part in this. Its opening leads to hyperpolarization of the cell membrane of the smooth muscle cell and consequently to a reduced calcium influx, resulting in a dilatation of the vessel. Blockade of the vascular KATP channel inhibits the widening of the vessel and thus adjustment of the coronary flow under hypoxic conditions. The test model used for determining the coronary flow was an isolated perfused Langendorff heart of a guinea pig.
Guinea pigs of both sexes were sacrificed by a blow to the head. The heart was quickly removed, and the aorta was canulated. After the canulation, the heart was suspended in the perfusion solution in the Langendorff apparatus, and a latex balloon was inserted into the left ventricle. The coronary flow was recorded using a flow transducer, type E, from Hellige (Freiburg, Germany). The heart was perfused with a constant pressure of 55 mm Hg. Hypoxia was induced by changing the aeration from 95% oxygen/5% carbon dioxide (=normoxia) to 20% oxygen/75% nitrogen/5% carbon dioxide. […]

hSUR1/hKir6.2, sequence (Q09428 whole entry): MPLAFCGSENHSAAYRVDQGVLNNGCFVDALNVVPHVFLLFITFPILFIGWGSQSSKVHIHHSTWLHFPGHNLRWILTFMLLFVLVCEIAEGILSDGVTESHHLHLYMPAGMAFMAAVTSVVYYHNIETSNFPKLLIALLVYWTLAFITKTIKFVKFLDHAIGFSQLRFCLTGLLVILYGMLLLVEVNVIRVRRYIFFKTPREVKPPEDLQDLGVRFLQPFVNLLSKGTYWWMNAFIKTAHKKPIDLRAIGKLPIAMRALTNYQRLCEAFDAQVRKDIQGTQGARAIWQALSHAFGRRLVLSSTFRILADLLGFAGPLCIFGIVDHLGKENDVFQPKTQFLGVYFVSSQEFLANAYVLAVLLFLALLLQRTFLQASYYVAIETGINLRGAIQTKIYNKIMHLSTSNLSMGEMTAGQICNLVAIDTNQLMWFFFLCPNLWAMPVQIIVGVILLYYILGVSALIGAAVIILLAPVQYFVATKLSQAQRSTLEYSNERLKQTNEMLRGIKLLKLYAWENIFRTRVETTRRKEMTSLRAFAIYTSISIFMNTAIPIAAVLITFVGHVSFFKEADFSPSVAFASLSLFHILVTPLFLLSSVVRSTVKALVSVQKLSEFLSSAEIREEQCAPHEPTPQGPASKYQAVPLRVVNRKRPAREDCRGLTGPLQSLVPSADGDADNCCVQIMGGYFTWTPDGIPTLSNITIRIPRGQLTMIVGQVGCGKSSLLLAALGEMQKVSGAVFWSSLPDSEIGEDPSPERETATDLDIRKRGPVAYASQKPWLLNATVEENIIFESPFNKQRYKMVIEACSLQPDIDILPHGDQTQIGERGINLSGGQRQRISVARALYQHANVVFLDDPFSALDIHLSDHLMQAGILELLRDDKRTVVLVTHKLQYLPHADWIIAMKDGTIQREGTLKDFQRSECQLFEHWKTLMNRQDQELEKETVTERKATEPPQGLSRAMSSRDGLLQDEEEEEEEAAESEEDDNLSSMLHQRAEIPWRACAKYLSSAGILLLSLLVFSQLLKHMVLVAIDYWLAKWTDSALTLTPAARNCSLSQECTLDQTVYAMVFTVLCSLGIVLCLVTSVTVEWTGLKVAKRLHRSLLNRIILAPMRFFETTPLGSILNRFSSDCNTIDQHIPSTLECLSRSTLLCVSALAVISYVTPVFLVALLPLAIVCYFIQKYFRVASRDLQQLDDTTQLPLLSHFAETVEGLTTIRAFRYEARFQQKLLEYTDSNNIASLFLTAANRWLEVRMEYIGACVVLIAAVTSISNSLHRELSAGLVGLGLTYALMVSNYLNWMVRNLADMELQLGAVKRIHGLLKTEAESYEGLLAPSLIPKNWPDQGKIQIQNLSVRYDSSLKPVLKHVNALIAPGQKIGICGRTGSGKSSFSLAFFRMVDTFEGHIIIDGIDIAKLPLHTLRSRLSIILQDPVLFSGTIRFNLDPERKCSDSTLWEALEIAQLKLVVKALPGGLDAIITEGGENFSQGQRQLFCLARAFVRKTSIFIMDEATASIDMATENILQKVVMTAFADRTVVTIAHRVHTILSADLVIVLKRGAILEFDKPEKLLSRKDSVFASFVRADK
hSUR1/hKir6.2, sequence (Q14654 whole entry partner): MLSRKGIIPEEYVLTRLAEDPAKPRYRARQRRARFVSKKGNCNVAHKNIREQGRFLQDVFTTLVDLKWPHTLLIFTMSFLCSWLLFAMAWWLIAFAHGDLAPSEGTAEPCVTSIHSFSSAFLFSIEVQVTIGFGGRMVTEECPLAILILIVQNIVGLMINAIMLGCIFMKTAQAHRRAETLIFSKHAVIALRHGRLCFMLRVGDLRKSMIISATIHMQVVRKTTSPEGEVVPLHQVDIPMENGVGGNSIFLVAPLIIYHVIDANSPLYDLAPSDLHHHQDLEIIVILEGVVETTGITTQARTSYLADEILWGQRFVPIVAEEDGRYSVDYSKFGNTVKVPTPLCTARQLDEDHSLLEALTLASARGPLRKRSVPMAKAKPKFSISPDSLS

SMILES	melting point [°C]	hSUR1/hKir6.2 blockade at 0.1 μM (hSUR1/hKir6.2) [%]	hSUR1/hKir6.2 blockade at 1 μM (hSUR1/hKir6.2) [%]	hSUR1/hKir6.2 blockade at 10 μM (hSUR1/hKir6.2) [%]	Remaining shortening of the APD90 under hypoxia in percent [1] [%]	Hypoxic coronary flow compared with the control in percent (guinea pig heart) [%]
CCNC(=S)NS(=O)(=O)N1CCC(CCNC(=O)c2cc(Cl)ccc2OC)CC1 [Example 2, 5-Chloro-2-methoxy-N-(2-(1-(3-ethylthioureidosulfonyl)piperidin-4-yl)ethyl)benzamide]		<1	4	67	82	
CNC(=O)NS(=O)(=O)N1CCC(CCNC(=O)c2cc(Cl)ccc2OC)CC1 [Example 7, 5-Chloro-2-methoxy-N-(2-(1-(3-methylureidosulfonyl)piperidin-4-yl)ethyl)benzamide]		<1	15	60	68	
CNC(=S)NS(=O)(=O)N1CCC(CCNC(=O)c2cc(Cl)ccc2OC)CC1 [Example 1, 5-Chloro-2-methoxy-N-(2-(1-(3-methylthioureidosulfonyl)piperidin-4-yl)ethyl)benzamide]		<1	2	41	80	
COc1ccc(Cl)cc1C(=O)NCCc1ccc(S(=O)(=O)NC(=O)NC2CCCCC2)cc1 [Comparison (1), glibenclamide, reference compound]						35
COc1ccc(Cl)cc1C(=O)NCCC1CCN(S(=O)(=O)NC(=S)NC2CC2)CC1 [Example 5, 5-Chloro-2-methoxy-N-(2-(1-(3-cyclopropylthioureidosulfonyl)piperidin-4-yl)ethyl)benzamide]	144 to 145					
CCCNC(=S)NS(=O)(=O)N1CCC(CCNC(=O)c2cc(Cl)ccc2OC)CC1 [Example 3, 5-Chloro-2-methoxy-N-(2-(1-(3-propylthioureidosulfonyl)piperidin-4-yl)ethyl)benzamide]		5	55	89	67	
COc1ccc(Cl)cc1C(=O)NCCC1CCN(S(=O)(=O)NC(=S)NC2CCCCC2)CC1 [Example 6, 5-Chloro-2-methoxy-N-(2-(1-(3-cyclohexylthioureidosulfonyl)piperidin-4-yl)ethyl)benzamide]	146 to 148					
COc1ccc(Cl)cc1C(=O)NCCC1CCN(S(=O)(=O)NC(=S)NC(C)C)CC1 [Example 4, 5-Chloro-2-methoxy-N-(2-(1-(3-isopropylthioureidosulfonyl)piperidin-4-yl)ethyl)benzamide]		2	53	89	54	61

Second part, led by results:

melting point [°C]	hSUR1/hKir6.2 blockade at 0.1 μM (hSUR1/hKir6.2) [%]	hSUR1/hKir6.2 blockade at 1 μM (hSUR1/hKir6.2) [%]	hSUR1/hKir6.2 blockade at 10 μM (hSUR1/hKir6.2) [%]	SMILES	Remaining shortening of the APD90 under hypoxia in percent [1] [%]	Hypoxic coronary flow compared with the control in percent (guinea pig heart) [%]
140 to 142				CCCNC(=O)NS(=O)(=O)N1CCC(CCNC(=O)c2cc(Cl)ccc2OC)CC1 [Example 9, 5-Chloro-2-methoxy-N-(2-(1-(3-propylureidosulfonyl)piperidin-4-yl)ethyl)benzamide]		
138 to 139				COc1ccc(Cl)cc1C(=O)NCCC1CCN(S(=O)(=O)NC(=O)NC2CC2)CC1 [Example 11, 5-Chloro-2-methoxy-N-(2-(1-(3-cyclopropylureidosulfonyl)piperidin-4-yl)ethyl)benzamide]		
	8	55	102	CCNC(=O)NS(=O)(=O)N1CCC(CCNC(=O)c2cc(Cl)ccc2OC)CC1 [Example 8, 5-Chloro-2-methoxy-N-(2-(1-(3-ethylureidosulfonyl)piperidin-4-yl)ethyl)benzamide]	54	
